Reference: patent US8895313B2, “Ligands for aggregated tau molecules” (Wista Laboratories Ltd., priority 2008, dated 2014)

Target: PHF (paired helical filaments) isolated from the brain of an Alzheimer's disease patient (Homo sapiens, UniProt P10636)
Test: Competitive binding assay: displacement of primulin fluorescence from PHFs
Design: key to P50: fl indicates that the compound is fluorescent. Consequently, binding levels for the compound in the competition binding assay cannot be determined by fluorescent spectroscopy
Details: for IC50: read-out: P50
Experimental: The DSB compounds were tested for their ability to bind to PHF in a competition-style assay.
If a test compound that also binds to PHFs with the same or greater affinity is added, it will displace the reference ligand and reduce the fluorescence signal. In the present assay, the reference compound is primulin, which was added at 1 μM. Test compounds were added at concentrations from 0.05 to 1 μM. The P50 for a test compound is defined as the concentration of compound that reduces the primulin signal to 50% of the control value. This value is, therefore, not an absolute affinity, but a relative affinity compared to the affinity of primulin.
PHFs were isolated from the brain of an Alzheimer's disease patient essentially as described by Wischik et al. (Neurobiology of Aging, Vol. 16, pp. 409-431, 1995). The IFII fraction was isolated by centrifugation on a sucrose gradient as described in the PhD thesis of C. M. Wischik, and was further extracted into an ‘abc sup’ as described by C. M. Wischik (Thesis “The structure and biochemistry of paired helical filaments in Alzheimer's disease” Part I and II; Cambridge University, 1989).
The assay for ligand activity was performed in 96 well plates (Nunc Cat. No. 236108). The test compound at the required concentration was mixed with PHFs, then primulin was added to give a final concentration of 1 μM and a total volume of 100 μl. The concentration of PHFs added was determined for each preparation to give an adequate fluorescence signal, and was typically in the range 1-2 μl/100 μl. The test compounds were typically dissolved in DMSO to give a final concentration of 10% DMSO in the assay. The control fluorescence, in the absence of PHFs, was also measured in the presence of 10% DMSO.
The fluorescence was measured in a Varian Carey Eclipse Fluorescence Spectrophotometer, with the […] wavelength at 480 nm. Excitation spectra were recorded and corrected by subtraction of the signal measured in the absence of PHFs, using the Varian software. The fluorescence signal at the peak […] wavelength of 420 nm was measured from the corrected spectra. The fluorescence values were plotted as a function of concentration of test compound, and the value for P50 measured from the graph.

[1] = concentration that reduces the signal of 1 μM primulin to 50% of control, relative affinity
[2] = compound fluorescent, no P50 obtainable

Sequence of PHF (paired helical filaments) isolated from the brain of an Alzheimer's disease patient (P10636 623-708 limits assumed): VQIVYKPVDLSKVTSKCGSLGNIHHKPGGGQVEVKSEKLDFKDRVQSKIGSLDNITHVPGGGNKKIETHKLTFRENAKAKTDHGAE

| IC50 [1] [nM] | SMILES | other results |
| --- | --- | --- |
| 950 | COc1ccc(C(=O)Nc2ccc(-c3cn4cc(C)ccc4n3)cc2)cc1F [AIPN-23] |  |
| ~1000 | COc1c(F)cc(C(=O)Nc2ccc(-c3cn4cc(C)ccc4n3)cc2)cc1F [AIPN-24] |  |
| > 1000 | COc1cc(F)c(C(=O)Nc2ccc(-c3cn4cc(C)ccc4n3)cc2)c(F)c1 [AIPN-25] |  |
| > 1000 | Cc1ccc2nc(-c3ccc(NC(=O)c4cc(F)c(O)c(F)c4)cc3)cn2c1 [AIPN-26] |  |
| > 1000 | Cc1ccc2nc(-c3ccc(NC(=O)c4ccc(O)c(F)c4)cc3)cn2c1 [AIPN-27] |  |
| > 1000 | COc1ccc(C(=O)Nc2ccc(-c3cn4cc(C)ccc4n3)cc2)cc1C(F)(F)F [AIPN-28] |  |
| 700 | Cc1ccc2nc(-c3ccc(NC(=O)c4ccc(O)cc4F)cc3)cn2c1 [AIPN-29] |  |
| ~1200 | Cc1ccc2nc(-c3ccc(/C=C/c4cccc(O)c4)cc3)sc2c1 [BEMA-10] |  |
| 50 | Cc1ccc2nc(-c3ccc(/C=C/c4ccc([N+](=O)[O-])cc4)cc3)cn2c1 [IEPN-01] |  |

Further lines, the molecule ahead of its results:

| SMILES | IC50 [1] [nM] | other results |
| --- | --- | --- |
| COc1cc(NC(=O)c2ccc(F)c([N+](=O)[O-])c2)ccc1-c1nc2ccccc2s1 [AUB-01] | > 1000 |  |
| COCCOCCOCCOc1cc(NC(=O)c2ccc(F)c([N+](=O)[O-])c2)ccc1-c1nc2ccccc2s1 [AUB-02] | > 1000 |  |
| CN(C)CCOc1cc(NC(=O)c2ccc([N+](=O)[O-])c(C(F)(F)F)c2)ccc1-c1nc2ccccc2s1 [AUB-03] | > 1000 |  |
| Cc1ccc2nc(-c3ccc(/N=N/c4ccc(O)cc4C(F)(F)F)cc3)sc2c1 [BDF-01] | 290 |  |
| Cc1ccc2nc(-c3ccc(/N=N/c4cc(C(F)(F)F)ccc4O)cc3)sc2c1 [BDF-02] | 460 |  |
| COc1ccc2nc(-c3ccc(/N=N/c4ccc(O)cc4C(F)(F)F)cc3)sc2c1 [BDF-03] | 130 |  |
| Oc1ccc(/N=N/c2ccc(-c3nc4ccc(O)cc4s3)cc2)c(C(F)(F)F)c1 [BDF-04] | 80 |  |
| Oc1ccc(/N=N/c2ccc(-c3nc4cc(O)ccc4s3)cc2)c(C(F)(F)F)c1 [BDF-05] | 90 |  |
| CN(C)c1ccc2nc(-c3ccc(/N=N/c4ccc(O)cc4C(F)(F)F)cc3)sc2c1 [BDF-06] | 40 |  |
| Oc1ccc(/N=N/c2ccc(-c3nc4ccc(OC(F)(F)F)cc4s3)cc2)cc1 [BDF-07] | 720 |  |
| Cc1ccc2nc(-c3ccc(/N=N/c4c(C(F)(F)F)cc(O)cc4C(F)(F)F)cc3)sc2c1 [BDF-08] |  | P50 [1]: no effect |
| Oc1ccc(/N=N/c2ccc(-c3nc4cc(OC(F)(F)F)ccc4s3)cc2)cc1 [BDF-09] |  | P50 [1]: no effect |
| COc1ccc2sc(-c3ccc(/N=N/c4ccc(C(F)(F)F)cc4O)cc3)nc2c1 [BDF-10] | 870 |  |
| COc1ccc2sc(-c3ccc(/N=N/c4ccc(O)cc4C(F)(F)F)cc3)nc2c1 [BDF-11] | 600 |  |
| COc1cccc2sc(-c3ccc(/N=N/c4ccc(C(F)(F)F)cc4O)cc3)nc12 [BDF-12] | 700 |  |
| COc1cccc2sc(-c3ccc(/N=N/c4ccc(O)cc4C(F)(F)F)cc3)nc12 [BDF-13] | 350 |  |
| Oc1ccc(/N=N/c2ccc(-c3nc4ccc(O)cc4s3)c(O)c2)c(C(F)(F)F)c1 [BDF-14] | 20 |  |
| Oc1ccc(/N=N/c2ccc(-c3nc4ccc(O)cc4s3)c(O)c2)c(OCCCC(F)(F)F)c1 [BDF-15] | 140 |  |
| Oc1ccc(/N=N/c2ccc(-c3nc4ccc(O)cc4s3)cc2O)c(C(F)(F)F)c1 [BDF-16] | 30 |  |
| Oc1ccc(/N=N/c2ccc(-c3nc4ccc(O)cc4s3)cc2O)c(OC(F)(F)F)c1 [BDF-17] | 30 |  |
| COc1ccc2nc(-c3ccc(/C=C/c4ccccc4C(F)(F)F)cc3)sc2c1 [BEFA-01] |  | P50 [1]: no effect |
| COc1ccc2nc(-c3ccc(/C=C/c4cccc(C(F)(F)F)c4)cc3)sc2c1 [BEFA-02] |  | P50 [1]: no effect |
| COc1ccc2nc(-c3ccc(/C=C/c4ccc(C(F)(F)F)cc4)cc3)sc2c1 [BEFA-03] |  | P50 [1]: no effect |

| SMILES | IC50 [1] [nM] | other results |
| --- | --- | --- |
| COc1ccc2nc(-c3ccc(/C=C/c4ccc(OCC(F)(F)F)cc4)cc3)sc2c1 [BEFA-04] |  | P50 [1]: no effect |
| COc1ccc2nc(-c3ccc(/C=C/c4ccc(NC(=O)C(F)(F)F)cc4)cc3)sc2c1 [BEFA-06] |  | P50 [2]: fl |
| COc1ccc2nc(-c3ccc(/C=C/c4ccc(NCCCC(F)(F)F)cc4)cc3)sc2c1 [BEFA-09] |  | P50 [1]: no effect |
| COc1ccc2nc(-c3ccc(/C=C/c4ccc(F)cc4)cc3)sc2c1 [BEFA-10] |  | P50 [2]: fl |
| COc1ccc2nc(-c3ccc(/C=C/c4ccc(OCCF)cc4)cc3)sc2c1 [BEFA-12] |  | P50 [1]: no effect |
| Oc1ccc2nc(-c3ccc(/C=C/c4ccc(F)cc4)cc3)sc2c1 [BEHF-01] |  | P50 [2]: fl |
| Oc1ccc2nc(-c3ccc(/C=C/c4ccc(NCC(F)(F)F)cc4)cc3)sc2c1 [BEHF-02] |  | P50 [2]: fl |
| Oc1ccc2nc(-c3ccc(/C=C/c4ccc(NCCCC(F)(F)F)cc4)cc3)sc2c1 [BEHF-04] |  | P50 [1]: no effect |
| Oc1ccc2nc(-c3ccc(/C=C/c4cc(OC(F)(F)F)ccc4O)cc3)sc2c1 [BEHF-06] |  | P50 [2]: fl |
| Oc1ccc(/C=C/c2ccc(-c3nc4ccc(O)cc4s3)cc2)c(C(F)(F)F)c1 [BEHF-07] |  | P50 [2]: fl |
| Cc1ccc2nc(-c3ccc(/C=C/c4ccccc4)cc3)sc2c1 [BEMA-01] |  | P50 [1]: no effect |
| Cc1ccc2nc(-c3ccc(/C=C/c4ccccc4N)cc3)sc2c1 [BEMA-05] |  | P50 [1]: no effect |
| Cc1ccc2nc(-c3ccc(/C=C/c4cccc(N)c4)cc3)sc2c1 [BEMA-06] |  | P50 [1]: no effect |
| Cc1ccc2nc(-c3ccc(/C=C/c4ccc(N(C)C)cc4)cc3)sc2c1 [BEMA-08] |  | P50 [2]: fl |
| Cc1ccc2nc(-c3ccc(/C=C/c4ccccc4O)cc3)sc2c1 [BEMA-09] |  | P50 [1]: no effect |
| Cc1ccc2nc(-c3ccc(/C=C/c4ccc(O)cc4)cc3)sc2c1 [BEMA-11] |  | P50 [1]: no effect |
| COc1cccc(/C=C/c2ccc(-c3nc4ccc(C)cc4s3)cc2)c1 [BEMA-12] |  | P50 [1]: no effect |
| COc1ccc2nc(-c3ccc(/C=C/c4ccc([N+](=O)[O-])cc4)cc3)sc2c1 [BEMOA-03] | 40 |  |
| COc1ccc2nc(-c3ccc(/C=C/c4cccc(N)c4)cc3)sc2c1 [BEMOA-05] | 280 |  |
| COc1ccc2nc(-c3ccc(/C=C/c4ccc(N)cc4)cc3)sc2c1 [BEMOA-06] |  | P50 [1]: no effect |
| COc1ccc2nc(-c3ccc(/C=C/c4ccc(O)c([N+](=O)[O-])c4)cc3)sc2c1 [BEMOA-09] | 30 |  |
| Cc1ccc2nc(-c3ccc(/N=N/c4ccc(N(C)C)cc4)cc3)cn2c1 [DPN-001] | 30 |  |
